Assay results from patent US20110105538A1, “DRUG RESPONSE MARKERS” (GUY'S & ST THOMAS'S NHS FOUNDATION TRUST, priority 2008, published 2011).
Read-outs that look alike come from different tables or passages of the source.

Experiments:
[1] = tested on: patients with IBD (Inflammatory Bowel Disease); assay: Prospective cohort starting 2 mg/kg AZA for IBD (Example 2): response versus AOX3404A>G, TPMT activity and HLA-G markers
[2] = tested on: patients with Inflammatory Bowel Disease; conditions: for Allele frequencies: Deletion allele / Allele frequencies: Insertion Allele: number of alleles (%); for Genotype: Insertion no / Genotype: Insertion yes / Genotype frequencies: Insertion no / Genotype frequencies: Insertion yes: number of patients
[3] = tested on: patients with Inflammatory Bowel Disease; conditions: for Genotype frequencies: Insertion no / Genotype frequencies: Insertion yes: number of patients (%); for Allelic frequencies: Deletion allele / Allelic frequencies: Insertion Allele: number of alleles (%)
[4] = of cohort of 182 patients starting 2 mg/kg
[5] = Crohn's Disease Patients, Outcome Failure
[6] = Crohn's Disease Patients, Outcome Response
[7] = Ulcerative Colitis Patients, Outcome Failure
[8] = Ulcerative Colitis Patients, Outcome Response
[9] = number of patients with side effect

**Q.** How did the non-responders [1, 4] turn out when `Cn1cnc([N+](=O)[O-])c1Sc1ncnc2nc[nH]c12` [azathioprine] was run?
**A.** The non-responders was 44.

**Q.** And the responders [1, 4]?
**A.** The responders was 66.

**Q.** What about the “those discontinuing treatment due to side effects” value [1, 4] of the same compound?
**A.** The value was 72.

**Q.** What about the chance of responding ([1]; those with all adverse predictors) of the same compound?
**A.** Its chance of responding is 14%.

**Q.** And the chance of responding ([1]; those with no adverse predictors)?
**A.** The chance of responding was 95%.

**Q.** What about the “Allele frequencies: Deletion allele” value ([2]; All Patients, Outcome Failure) of the same compound?
**A.** The value was 50 (64%).

**Q.** What about the “Allele frequencies: Insertion Allele” value ([2]; All Patients, Outcome Failure) of the same compound?
**A.** The value was 30 (36%).

**Q.** And the “Allele frequencies: Deletion allele” value ([2]; All Patients, Outcome Response)?
**A.** The value was 39 (34%).

**Q.** What about the “Allele frequencies: Insertion Allele” value ([2]; All Patients, Outcome Response) of the same compound?
**A.** The value was 75 (65%).

**Q.** What about the “Genotype: Insertion no” value ([2]; CD, Fail) of the same compound?
**A.** Its value is 2.

**Q.** What about the “Genotype: Insertion yes” value ([2]; CD, Fail) of the same compound?
**A.** The value was 17.

**Q.** What about the “Genotype: Insertion no” value ([2]; CD, Response) of the same compound?
**A.** Its value is 15.

**Q.** And the “Genotype: Insertion yes” value ([2]; CD, Response)?
**A.** Its value is 14.

**Q.** What about the “Allele frequencies: Deletion allele” value [2, 5] of the same compound?
**A.** The value was 14 (37%).

**Q.** And the “Allele frequencies: Insertion Allele” value [2, 5]?
**A.** The value was 24 (63%).

**Q.** What about the “Allele frequencies: Deletion allele” value [2, 6] of the same compound?
**A.** Its value is 45 (69%).

**Q.** And the “Allele frequencies: Insertion Allele” value [2, 6]?
**A.** Its value is 18 (31%).

**Q.** And the “Genotype: Insertion no” value ([2]; UC, Fail)?
**A.** The value was 3.

**Q.** What about the “Genotype: Insertion yes” value ([2]; UC, Fail) of the same compound?
**A.** Its value is 18.

**Q.** And the “Genotype: Insertion no” value ([2]; UC, Response)?
**A.** Its value is 10.

**Q.** What about the “Genotype: Insertion yes” value ([2]; UC, Response) of the same compound?
**A.** Its value is 18.

**Q.** What about the “Allele frequencies: Deletion allele” value [2, 7] of the same compound?
**A.** Its value is 16 (38%).

**Q.** And the “Allele frequencies: Insertion Allele” value [2, 7]?
**A.** The value was 26 (62%).

**Q.** And the “Allele frequencies: Deletion allele” value [2, 8]?
**A.** Its value is 45 (62%).

**Q.** What about the “Allele frequencies: Insertion Allele” value [2, 8] of the same compound?
**A.** Its value is 21 (37%).

**Q.** And the “Genotype frequencies: Insertion no” value ([2]; all patients, Outcome Fail)?
**A.** Its value is 21.

**Q.** What about the “Genotype frequencies: Insertion yes” value ([2]; all patients, Outcome Fail) of the same compound?
**A.** Its value is 30.

**Q.** And the “Genotype frequencies: Insertion no” value ([2]; all patients, Outcome Response)?
**A.** The value was 50.

**Q.** What about the “Genotype frequencies: Insertion yes” value ([2]; all patients, Outcome Response) of the same compound?
**A.** Its value is 32.

**Q.** And the “Fisher's exact test OR” value ([2]; allele frequencies, All Patients)?
**A.** Its value is “OR = 3.2”.

**Q.** What about the “Fisher's exact test OR” value ([2]; allele frequencies, Crohn's Disease Patients) of the same compound?
**A.** The value was “OR = 4.2”.

**Q.** And the “Fisher's exact test OR” value ([2]; allele frequencies, Ulcerative Colitis Patients)?
**A.** Its value is “OR = 3.4”.

**Q.** What about the “Fisher's exact test OR” value ([2]; genotype frequencies, all patients) of the same compound?
**A.** Its value is “OR = 2.2,”.

**Q.** What about the “Fisher's exact test OR” value ([2]; genotype, CD) of the same compound?
**A.** The value was “OR = 9,”.

**Q.** What about the “Fisher's exact test OR” value ([2]; genotype, UC) of the same compound?
**A.** The value was “OR = 3,”.

**Q.** And the “patients identified as responders to therapy” value ([2]; of 100 patients completing minimum three months, steroid withdrawal and Harvey Bradshaw index less than four)?
**A.** The value was 50 patients.

**Q.** What about the “withdrew due to intolerable side-effects” value ([2]; of the 140 patients recruited) of the same compound?
**A.** The value was 40.

**Q.** `CN(Cc1cnc2nc(N)nc(N)c2n1)c1ccc(C(=O)N[C@@H](CCC(=O)O)C(=O)O)cc1` [methotrexate] was tested. Which “association between side effects and folate supplementation” value ([3]; 94 patients on folate, 39 never on folate) did it give?
**A.** Its value is “No association”.

**Q.** And the “Genotype frequencies: Insertion no” value ([3]; Outcome Fail (91 pts.))?
**A.** The value was 21 (23%%).

**Q.** And the “Genotype frequencies: Insertion yes” value ([3]; Outcome Fail (91 pts.))?
**A.** The value was 70 (77%).

**Q.** And the “Allelic frequencies: Deletion allele” value ([3]; Outcome Failure)?
**A.** Its value is 86 (47%).

**Q.** What about the “Allelic frequencies: Insertion Allele” value ([3]; Outcome Failure) of the same compound?
**A.** The value was 96 (52%).

**Q.** What about the “Genotype frequencies: Insertion no” value ([3]; Outcome Response (91 pts.)) of the same compound?
**A.** Its value is 40 (44%).

**Q.** And the “Genotype frequencies: Insertion yes” value ([3]; Outcome Response (91 pts.))?
**A.** Its value is 51 (56%).

**Q.** And the “Allelic frequencies: Deletion allele” value ([3]; Outcome Response)?
**A.** The value was 113 (62%).

**Q.** What about the “Allelic frequencies: Insertion Allele” value ([3]; Outcome Response) of the same compound?
**A.** The value was 69 (37%).

**Q.** And the “Fisher's exact test OR” value ([3]; allelic frequencies, response vs failure)?
**A.** Its value is “OR = 1.8”.

**Q.** And the “Fisher's exact test OR” value ([3]; genotype frequencies, response vs fail)?
**A.** The value was “OR = 2.6,”.

**Q.** What about the “patients developed side effects” value ([3]; methotrexate group) of the same compound?
**A.** The value was 45 patients.

**Q.** And the “patients withdrawn from therapy as a direct consequence of their side-effect” value ([3]; methotrexate group)?
**A.** Its value is 21 patients.

**Q.** What about the abdominal pain [3, 9] of the same compound?
**A.** Its abdominal pain is “one”.

**Q.** What about the alopecia [3, 9] of the same compound?
**A.** Its alopecia is “one”.

**Q.** And the “haematological abnormalities including neutropenia” value [3, 9]?
**A.** Its value is “four”.

**Q.** What about the minor infections [3, 9] of the same compound?
**A.** Its minor infections is “four”.

**Q.** What about the mucositis [3, 9] of the same compound?
**A.** The mucositis was “two”.

**Q.** And the “muscle and joint pains” value [3, 9]?
**A.** Its value is “three”.

**Q.** And the nausea [3, 9]?
**A.** The nausea was 16.

**Q.** What about the skin rash [3, 9] of the same compound?
**A.** The skin rash was “three”.

**Q.** What about the “transient LFT abnormalities” value [3, 9] of the same compound?
**A.** Its value is 10.

**Q.** And the “patients responded to treatment (percent)” value ([3]; of 187 patients completing at least three months of therapy)?
**A.** The value was 51%.

**Q.** And the “patients responded to treatment” value ([3]; of 187 patients completing at least three months of therapy, response = steroid withdrawal or documented efficacy)?
**A.** Its value is 97 patients.

**Q.** And the “response to treatment between administration regimes” value ([3]; oral vs subcutaneous vs intramuscular induction progressing to oral)?
**A.** The value was “no difference in the response to treatment”.
